Series [1] can be described thus: In vitro cytotoxicity testing, MTT assay, W138 normal cells. The class given is cell-based. To be noted: W138 normal lung fibroblast cells, human normal lung fibroblast W138, read-out: IC50 W138 normal cell line. The protocol:
In vitro cytotoxic activity of 5f, 5h, 5m and 5r was evaluated in accord to the reported method (Mosmann, 1983[46]; Denizot and Lang, 1986[13]; Gerlier and Thomasset, 1986[21]).
The effective antitumor compounds, 5f, 5h, 5m and 5r were further assessed for in vitro cytotoxicity toward human normal lung fibroblast (W138) cell line (Mosmann, 1983[46]; Denizot and Lang, 1986[13]; Gerlier and Thomasset, 1986[21]). IC50 values (µM) of the tested compounds and 5-FU (reference cytotoxic agent) were calculated. […]
(§1) In vitro antitumor screening
(§2) Compounds 5a-t were screened for in vitro antitumor activity against HepG2 (liver), HCT-116 (colon) and MCF-7 (breast) cancer cell lines adopting MTT assa y (Mosmann, 1983; Denizot and Lang, 1986; Gerlier and Thomasset, 1986) and usin g 5- fluorouracil as a reference antitumor agent. Cells were cultured in Roswell Park Memorial Institute (RPM I) 1640 medium wit h 10% fetal bovine serum, penicillin (100 units/mL) and streptomycin (100 µg/mL) at 37 ° C in an atmosphere of 5% CO 2 were added.
(§3) Cells were placed in 96-multiwell microtiter plates (10^4 cells/well), for 24 h rs at 37 °C and in an atmosphere of 5% CO2 before tr eatment with the compounds to allow attachment of the cells to the wall of the plate. The tested compounds were dissolved in DMSO and diluted with phosphate buffer saline (PBS) to obtain different concentrations. Tested compounds of dif-ferent concentrations were added to each well and cells were incubated with the compounds for 48 hrs at 37 °C and in an atmosphere of 5% CO2. All tests were performed in triplicates.
(§4) The treated cells were wash ed with PBS and 100 µL of 3 -(4,5-dimeth ylthiazol-2-yl )-2,5-diphe-n yltetrazolium bromide solution (MTT) (5 mg/m L MTT st ock in PBS diluted to 1 mg/ mL with 10% RPMI-1640 medium) was added. The 9 6 -multiwell plates were read b y microarra y read er Perkinelmer vector 3V multilabel counter model 1420 (Perkinelmer, Boston, MA) for optical densit y at 490 nm (Mosmann, 1983; Denizot and Lang, 1986; Gerlier and Thomasset, 1986).
(§5) The relative percenta ge cell viabilit y was calculate d from the following equation: […]
(§6) The relation between surviving fraction and drug concentration is plotted to get the survival curve for HepG2, HCT-116 and M CF-7 cancer cell lines . […]
In vitro cytotoxicity testing […]
J Immunol Methods. 1986;89:271-7.
(§7) Gerlier D, Thomasset T. Use of MTT colorimetric assa y to measure cell activation. J Immunol Methods. 1986; […]
(§8) Mosmann T. Rapid colorimetric assa y for cellular growth and survival: Application to proliferation and cytotox- […]
(§9) Oberling C, Gu erin M. The role of viruses in the production of cancer . Ad v Cancer Res. 1954;2:353-423.
(§10) Sheeja KR, Kuttan G, Kuttan R. C ytotox ic and antitumour activit y of Berberin. Amala Res Bull. 1997;17:73-6.
Background: Formazan colour is commonly taken as a measure of viable cells.

In another series the test system is EAC cells. Nature of the series: In vivo antitumor screening against EAC cells in mice. To be noted: 0.5 mg/mouse; for Hb / RBCs Count / WBCs Count: blood profile of mice inoculated with EAC cells; for Viable tumor cell count/100 μL / Tumor volume / Mean survival time / % Increase in lifespan: mice inoculated with EAC cells; for Viable tumor cell count/100 μL: after five days of treatment, trypan blue; for Tumor volume: ascitic fluid; for Mean survival time: treatment for nine days; for % Increase in lifespan: %ILS = [(MST treated/MST positive control)-1] x 100. The protocol: In vivo antitumor assessment of 5f, 5h, 5m and 5r was performed according to the literature method (Oberling and Guerin, 1954[48]; Sheeja et al., 1997[64]; Clarkson and Burchenal, 1965[9]).
Results of in vivo antitumor screening of compounds 5f, 5h, 5m and 5r (showing the highest in vitro antitumor activity) against EAC cells in mice are listed in Tables 2-4(Tab. 2)(Tab. 3)(Tab. 4). The % increase in lifespan of EAC inoculated mice (%ILS), the decrease in viable tumor cell count and the retrieval of normal blood profile are three substantial measures used for estimation of antitumor efficacy of the selected compounds and 5-fluorouracil (5-FU) (standard agent) (Oberling and Guerin, 1954[48]; Sheeja et al., 1997[64]; Clarkson and Burchenal, 1965[9]). The mean survival time (MST) of each group was rated and %ILS of mice inoculated with EAC cells was determined adopting the equation: %ILS = [(MST of treated group/ MST of positive control group)-1] x 100, where MST = days of the mouse in a group/total no. of mice. […] Also, this compound produced considerable decrease in viable tumor cell count (Table 3(Tab. 3)). […]
In vivo antitumor screening
Swiss male albino mice (wei ghing 20-25 g) were utilized. The y were dwelled in microlon boxes at temperature 25 ± 2 °C with a regular 12 hrs light/dark cycl e, in addition, food and water intake were permitted.
EAC cells were acquir ed from the NCI, Cairo, Egypt.
Mice were divided into 7 groups (n= 6).
Group 1: Negative contr ol (no EAC cells) - recei ved normal saline.
Group 2: Positive control (EAC cells) - receiv ed normal saline.
Group 3: EAC cells - received compound 5f (0.5 mg/mouse).
Group 4: EAC cells - received compound 5h (0.5 mg/mouse).
Group 5: EAC cells - received compound 5m (0.5 mg/mouse).
Group 6: EAC cells - received compound 5r (0.5 mg/mouse).
Group 7: EAC cells - received 5-fluorouracil (0.5 mg/mouse).
2 x 10^6 cells were inoc ulated intraperitoneall y t o each mouse in all groups ex cept the neg-ative control group. The tr eatment began 24 hrs after inoculation (0.5 mg/mouse) and con-tinued for nine days (Oberlin g and Gu erin, 19 54; Sheeja et al., 1997; Clarkson and Burch enal, […]
Determination of tumor volume
The ascetic fluid was gath ered from the peritoneal cavit y of dissected mice. It was th en centrifuged for 5 min and the tumor cell volume was set.
Determination of viable tumor cell count after five days of treatment
EAC cells (100 μ L, from three mice of each group) were obtained and diluted to twent y-fold with saline. The cells were st ained with tr ypan blue, t he dead cells are stained, whereas […]
The number of viable cells was counted. […]
Clarkson BD, Burchenal JH. Preliminary screening of antineoplastic drugs. Prog Clin Cancer. 1965;1:625-9. […]
as §9, §10

For series [2], the system named is cervical (Hela) cancer cell line. The series is described as follows: In vitro antitumor screening, MTT assay, Hela. Type of series: cell-based. The following applies: Homo sapiens, 50% inhibition of cell viability. Here is the method:
(§11) The new analogs were tested for in vitro antitumor efficacy adopting the reported procedure (Mosmann, 1983[46]; Denizot and Lang, 1986[13]; Gerlier and Thomasset, 1986[21]).
(§12) In vitro antitumor screening of compounds 5a-t was carried out on cervical (Hela) and kidney fibroblast (COS-7) cancer cell lines in accord to MTT assay (Mosmann, 1983[46]; Denizot and Lang, 1986[13]; Gerlier and Thomasset, 1986[21]) and utilizing doxorubicin as a standard drug. The concentrations of the compounds that cause 50% inhibition of cell viability (IC50, µM) were calculated. […]
as §1, §2, §3, §4, §5, §6
(§13) Denizot F, Lang R. Rapid colorimetric assa y for cell growth and survival. Modifications to the tetrazolium dye procedure giving improved sensitivity an d reliability. J Immunol Methods. 1986;89:271-7.
as §7, §8, §9, §10

For series [3], the system named is kidney fibroblast (COS-7) cancer cell line. The series is described as follows: In vitro antitumor screening, MTT assay, COS-7. Type of series: cell-based. To be noted: Chlorocebus aethiops, 50% inhibition of cell viability, COS-7 cell line. Here is the method:
as §11, §12
In vitro antitumor screening […]
HCT-116 (colon) and MCF-7 (breast) cancer cell lines adopting MTT assa y (Mosmann, 1983; Denizot and Lang, 1986; Gerlier and Thomasset, 1986) and usin g 5- fluorouracil as a reference antitumor agent. Cells were cultured in Roswell Park Memorial Institute (RPM I) 1640 medium wit h 10% fetal bovine serum, penicillin (100 units/mL) and streptomycin (100 µg/mL) at 37 ° C in an atmosphere of 5% CO 2 were added.
as §3, §4, §5, §6, §13, §7, §8, §9, §10

Bounds are passed on as bounds.

As usually defined, the IC50 is the concentration that inhibits the measured activity by half. In the case of `O=c1[nH]cc(F)c(=O)[nH]1` [5-Fluorouracil, 5-fluorouracil, reference compound], the IC50 at 48 h in series [1] was determined as 5.73 µM. Further, in the series on EAC cells, the Hb is 12.96 g/dL, the “RBCs Count” value is reported as 5.21 10^6/mm^3, the “WBCs Count” value was 8.86 10^3/mm^3 and the “Viable tumor cell count/100 μL” value is 20.17x10^6 /100 μL. Besides, in the series on EAC cells, the Tumor volume came to 1.60 mL, the Mean survival time came to 49.0 days and the “% Increase in lifespan” value was found to be 237.9%.

In series [2], `O=c1oc2ccccc2cc1-c1csc(NN=Cc2c(Cl)cccc2Cl)n1` [5f, 3-(2-(2-(2,6-Dichlorobenzylidene)hydrazino)thiazol-4-yl)-2H-chromen-2-one] registered an IC50 of 1.9 µM. Further, in series [1], the IC50 at 48 h is 36.2 µM. In addition, in series [3], the IC50 is over 50 µM. Besides, in the series with EAC cells, the Hb amounted to 12.92 g/dL, the “RBCs Count” value was 5.14 10^6/mm^3, the “WBCs Count” value is recorded as 8.41 10^3/mm^3 and the “Viable tumor cell count/100 μL” value is 25.83x10^6 /100 μL. Moreover, in the series with EAC cells, the Tumor volume came out at 2.62 mL, the Mean survival time stood at 41.0 days and the “% Increase in lifespan” value is 182.7%.

As to `O=c1oc2ccccc2cc1-c1csc(NN=Cc2cc([N+](=O)[O-])ccc2Cl)n1` [5h, 3-(2-(2-(2-Chloro-5-nitrobenzylidene)hydrazino)thiazol-4-yl)-2H-chromen-2-one], in series [2], half-maximal inhibition (IC50) was put at 1.42 µM. The IC50 at 48 h in series [1] was determined as 19.8 µM. In addition, in series [3], the IC50 worked out at 1.96 µM. In the series on EAC cells, the Hb amounted to 11.97 g/dL, the “RBCs Count” value is listed as 4.92 10^6/mm^3, the “WBCs Count” value is given as 9.25 10^3/mm^3 and the “Viable tumor cell count/100 μL” value is listed as 32.57x10^6 /100 μL. Besides, in the series on EAC cells, the Tumor volume turned out to be 3.12 mL, the Mean survival time worked out at 39.3 days and the “% Increase in lifespan” value came to 171.0%.

Take `O=c1oc2ccccc2cc1-c1csc(NN=Cc2ccc[nH]2)n1` [5m, 3-(2-(2-((1H-Pyrrol-2-yl)methylidene)hydrazino)thiazol-4-yl)-2H-chromen-2-one]: the IC50 in series [2] was 6.25 µM. Besides, in series [1], the IC50 at 48 h was 29.5 µM. The compound further came in with an IC50 in series [3] of 12.5 µM. In the series with EAC cells, the Hb is 11.43 g/dL, the “RBCs Count” value is recorded as 4.39 10^6/mm^3, the “WBCs Count” value is 9.61 10^3/mm^3 and the “Viable tumor cell count/100 μL” value was 40.52x10^6 /100 μL. In addition, in the series on EAC cells, the Tumor volume amounted to 3.85 mL, the Mean survival time was determined as 37.0 days and the “% Increase in lifespan” value is recorded as 155.2%.

In series [2], `O=c1oc2ccccc2cc1-c1csc(NN=Cc2c3ccccc3c(Cl)c3ccccc23)n1` [5r, 3-(2-(2-((10-Chloroanthracen-9-yl)-methylidene)hydrazino)thiazol-4-yl)-2H-chromen-2-one] had an IC50 of 1.29 µM. The IC50 at 48 h in series [1] worked out at 24.3 µM. This compound also displayed an IC50 in series [3] of 1.66 µM. Besides, in the series on EAC cells, the Hb stood at 13.10 g/dL, the “RBCs Count” value is 5.55 10^6/mm^3, the “WBCs Count” value is 7.45 10^3/mm^3 and the “Viable tumor cell count/100 μL” value is recorded as 21.94x10^6 /100 μL. In the series with EAC cells, the Tumor volume came to 2.11 mL, the Mean survival time amounted to 45.5 days and the “% Increase in lifespan” value was 213.8%.

(Values after PMC5735336, “Microwave-assisted synthesis and antitumor evaluation of a new series of thiazolylcoumarin derivatives” (EXCLI Journal, 2017).)
